According to article PMC8151276, “An Integrated Approach toward NanoBRET Tracers for Analysis of GPCR Ligand Engagement” (Molecules, 2021):

Target: T1, MC2R (Homo sapiens, UniProt Q01718)
T1 construct: purchased Promega (in-house HiBiT-GPCR construct library, NanoBRET)
Assay: NanoBRET screen HiBiT-MC2R in HEK293
Format: binding
Method: Each tracer candidate was screened across the entire library of HiBiT-GPCR constructs using NanoBRET as the detection modality. As depicted in Figure 4A, the specificity of interactions was evaluated through decrease in BRET due to competitive displacement of a bound tracer by excess parental compound. Each tracer was analyzed for binding to each HiBiT-GPCR fusion in the absence and in the presence of competing parental compound. Briefly, HEK293 cells were transfected with HiBiT-GPCR constructs diluted into promoterless DNA to reduce expression and maximize translocation to the cell surface. Each tracer candidate was then screened at concentrations of 1 μM and 0.1 μM across cells expressing these fusions. Cells were treated for 1.5 h with tracer either alone or in the presence of 20 μM competing parental compound (i.e., control). BRET was measured upon addition of purified LgBiT and subsequent complementation with HiBiT genetically fused to a GPCR. The specificity of interactions was assessed through a decrease in BRET signal due to competitive displacement of the bound tracer. To further gauge the robustness of these interactions, the fold response over the control (i.e., BRETtracer/BRETcontrol) was calculated. We chose a 1.5-fold response, which translates to ≥7-fold signal over noise as the minimal threshold required to score an interaction as positive.
HiBiT-GPCR DNA constructs were diluted in 10 mM Tris pH 8 to a final concentration of 0.01 μg/μL, arrayed in 96-well plates and stored at −20 °C. For transfection, HEK293 cells were suspended in Opti-MEM (without phenol red) supplemented with 2% fetal bovine serum (Seradigm) and 100 units/mL penicillin–streptomycin (Gibco) at a final concentration of 220,000 cells/mL and dispensed into white 96-well plates at 90 μL/well. Subsequent transfections and screens were carried using an Agilent Bravo Automated Liquid Handling Platform. First, the 96-well HiBiT DNA arrays were diluted 25-fold in Opti-MEM (without serum or phenol red) to a final concentration of 0.0004 μg/μL and 20 μL of the diluted DNAs were transferred into new 96-well plates. Next, promoterless carrier DNA (1 μg/μL) was diluted 25-fold (0.04 μg/μL) and then dispensed into the diluted arrays at 20 μL/well. Following brief mixing, Viafect transfection reagent (Promega) diluted 16-fold into Opti-MEM was dispensed into the plates at 40 μL/well. After mixing by pipetting, plates were incubated for 10 min on the pipetting station deck. The DNA-transfection reagent complexes were then added to plates containing cells. To facilitate the screen, 10 μL of DNA-transfection reagent complexes were added in duplicates to the top 4 and bottom 4 rows, resulting in two identical 48-well arrays per plate. Plates with transfected cells were incubated for 18–20 h at 37 °C/5% CO2. A screen of each tracer across the entire library using two different concentrations requires duplicate plates of transfected cells. Depending on the number of tracers being screened, transfections can be scaled up using the same ratios. The next day, for each tracer, four 20× screening solutions in tracer dilution buffer (Promega) were prepared: two duplicates at final concentration of 20 μM and two duplicates at a final concentration of 2 μM. […] The four resulting solutions were diluted 4-fold in Opti-MEM without serum or phenol red to generate 5× solutions (5 µM and 0.5 µM tracer +/− 100 μM competing compound). To screen the library, a BioTek MultiFlo FX liquid dispenser was used to dispense 22.5 µL of tracer solution to the top 4 rows and 22.5 µL tracer + competing compound solution to the 4 bottom rows. Plates were briefly mixed on an orbital shaker and incubated for 1.5 h at room temperature. […] Plates were briefly mixed on an orbital shaker and incubated for 15 min to allow complementation.

T1 sequence (Q01718 whole entry): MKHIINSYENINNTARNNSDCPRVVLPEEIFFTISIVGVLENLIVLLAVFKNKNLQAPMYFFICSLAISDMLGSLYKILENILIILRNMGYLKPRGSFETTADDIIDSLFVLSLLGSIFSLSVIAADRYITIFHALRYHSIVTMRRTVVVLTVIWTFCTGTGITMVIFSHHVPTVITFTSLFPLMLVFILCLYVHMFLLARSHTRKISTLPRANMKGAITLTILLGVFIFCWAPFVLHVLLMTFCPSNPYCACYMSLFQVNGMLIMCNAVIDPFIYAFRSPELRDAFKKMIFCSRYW

Row | SMILES | NanoBRET Fold Response (MC2R, tracer 0.1μM) | NanoBRET Fold Response (MC2R, tracer 1μM) | further results
1 | CN1CCN(C2=Nc3cc(Cl)ccc3Nc3ccc(CNC(=O)CCOCCOCCOCCOCCNC(=O)CCc4ccc5n4[B-](F)(F)[N+]4=C(c6ccc[nH]6)C=CC4=C5)cc32)CC1 [Clozapine-b-2-NB590] |  |  | NanoBRET Fold Response (MC2R, 0.1μM tracer): 1.02; NanoBRET Fold Response (MC2R, 1μM tracer): 1.00
2 | CN(C)CCC=C1c2ccccc2CCc2ccc(C(=O)NCCNC(=O)CCOCCOCCOCCOCCNC(=O)CCc3ccc4n3[B-](F)(F)[N+]3=C(c5ccc[nH]5)C=CC3=C4)cc21 [Amitriptyline-b-2-NB590] |  |  | NanoBRET Fold Response (tracer at 0.1μM): 1.00; NanoBRET Fold Response (tracer at 1μM): 1.02
3 | CCOC(=O)c1cc(C#N)c(N2CCC(C(=O)NS(=O)(=O)Cc3ccccc3/C=C/C(=O)NCCNC(=O)CCc3ccc4n3[B-](F)(F)[N+]3=C(c5ccc[nH]5)C=CC3=C4)CC2)nc1C [AZD1283-1-NB590] |  |  | NanoBRET Fold Response (MC2R, 0.1μM): 0.94; NanoBRET Fold Response (MC2R, 1μM): 1.02
4 | CC(C)N(CC[C@H](c1ccccc1)c1cc(CCNC(=O)CCOCCOCCOCCOCCNC(=O)CCc2ccc3n2[B-](F)(F)[N+]2=C(c4ccc[nH]4)C=CC2=C3)ccc1O)C(C)C [Tolterodine-2-NB590] | 1.08 | 1.10 | 
5 | CC(C)N(CC[C@H](c1ccccc1)c1cc(CCNC(=O)c2ccc(CNC(=O)CCc3ccc4n3[B-](F)(F)[N+]3=C(c5ccc[nH]5)C=CC3=C4)cc2)ccc1O)C(C)C [Tolterodine-BZ-NB590] | 0.88 | 1.06 | 
6 | O=C(CCOCCOCCOCCOCCNC(=O)CCc1ccc2n1[B-](F)(F)[N+]1=C(c3ccc[nH]3)C=CC1=C2)NCCCN1CCN(C2=Nc3ccccc3Oc3ccc(Cl)cc32)CC1 [Loxapine-a-2-NB590] | 0.99 | 1.11 | 
7 | CN1CCN(C2=Nc3cc(Cl)ccc3N(CC(=O)NCCOCCOCCOCCOCCNC(=O)CCc3ccc4n3[B-](F)(F)[N+]3=C(c5ccc[nH]5)C=CC3=C4)c3ccccc32)CC1 [Clozapine-c-2-NB590] |  |  | NanoBRET Fold Response (MC2R, 0.1μM tracer): 0.99; NanoBRET Fold Response (MC2R, 1μM tracer): 1.11
8 | Cc1nc2n(c(=O)c1CCN1CCC(c3noc4cc(F)ccc34)CC1)CCCC2OC(=O)NCCOCCOCCOCCOCCNC(=O)CCc1ccc2n1[B-](F)(F)[N+]1=C(c3ccc[nH]3)C=CC1=C2 (stereo not drawn) [Risperidone-2-NB590] | 1.04 | 1.06 | 
9 | COc1ccc2[nH]c(-c3ccc(CNC(=O)CCOCCOCCOCCOCCNC(=O)CCc4ccc5n4[B-](F)(F)[N+]4=C(c6ccc[nH]6)C=CC4=C5)cc3)c(CCNC(C)=O)c2n1 [AzomelatoninICO9-2-NB590] |  |  | NanoBRET Fold Response (0.1μM tracer): 0.93; NanoBRET Fold Response (1μM tracer): 1.16
10 | COc1ccccc1N1CCN(CCCCN2C(=O)c3ccc(CNC(=O)CCOCCOCCOCCOCCNC(=O)CCc4ccc5n4[B-](F)(F)[N+]4=C(c6ccc[nH]6)C=CC4=C5)cc3C2=O)CC1 [NAN-190-2-NB590] | 0.96 |  | 
11 | O=C(CCc1ccc2n1[B-](F)(F)[N+]1=C(c3ccc[nH]3)C=CC1=C2)NCCOCCOCCNC(=O)OCCOCCN1CCN(C2=Nc3ccccc3Sc3ccccc32)CC1 [Quetiapine-a-2-NB590] | 0.98 | 0.95 | 
12 | O=C(CCOCCOCCOCCOCCNC(=O)CCc1ccc2n1[B-](F)(F)[N+]1=C(c3ccc[nH]3)C=CC1=C2)NCCCN1CCN(C2=Nc3cc(Cl)ccc3Nc3ccccc32)CC1 [Clozapine-a-2-NB590] |  |  | NanoBRET Fold Response (MC2R, 0.1μM tracer): 0.97; NanoBRET Fold Response (MC2R, 1μM tracer): 0.97
13 | N#CN=C(NCCCOc1cccc(CN2CCCCC2)c1)NCCNC(=O)CCOCCOCCOCCOCCNC(=O)CCc1ccc2n1[B-](F)(F)[N+]1=C(c3ccc[nH]3)C=CC1=C2 [Aminopotentidine-2-NB590] | 0.97 | 0.92 | 
14 | O=C(CCc1ccc2n1[B-](F)(F)[N+]1=C(c3ccc[nH]3)C=CC1=C2)NCc1ccc(C(=O)NCCOCCOCCNCC(O)COc2cccc3ccccc23)cc1 (stereo not drawn) [Propranolol-3-NB590] |  |  | NanoBRET Fold Response (MC2R, 1μM): 1.03
15 | O=C(CCc1ccc2n1[B-](F)(F)[N+]1=C(c3ccc[nH]3)C=CC1=C2)NCc1ccc(C(=O)NCCOCCC(=O)N[C@@H]2CC[C@@]3(O)[C@H]4Cc5ccc(O)c6c5[C@@]3(CCN4CC3CC3)[C@H]2O6)cc1 [Naltrexone-3-NB590] | 0.75 | 1.15 | 
16 | COc1ccccc1N1CCN(CCCCN2C(=O)c3ccc(CNC(=O)CCOCCNC(=O)c4ccc(CNC(=O)CCc5ccc6n5[B-](F)(F)[N+]5=C(c7ccc[nH]7)C=CC5=C6)cc4)cc3C2=O)CC1 [NAN-190-3-NB590] | 1.02 | 0.96 | 
17 | Cc1cc2c(s1)Nc1ccccc1N=C2N1CCN(CCCNC(=O)CCOCCOCCOCCOCCNC(=O)CCc2ccc3n2[B-](F)(F)[N+]2=C(c4ccc[nH]4)C=CC2=C3)CC1 [Olanzapine-a-2-NB590] | 0.98 | 1.21 | 
18 | CCCn1c(=O)c2[nH]c(-c3ccc(OCC(=O)NCCNC(=O)CCOCCNC(=O)c4ccc(CNC(=O)CCc5ccc6n5[B-](F)(F)[N+]5=C(c7ccc[nH]7)C=CC5=C6)cc4)cc3)nc2n(CCC)c1=O [XAC-3-NB590] | 1.02 | 1.05 | 
19 | COc1ccc2c(n1)c(CCNC(C)=O)cn2CCNC(=O)CCc1ccc2n1[B-](F)(F)[N+]1=C(c3ccc[nH]3)C=CC1=C2 [Azamelatonin-1-NB590] |  |  | NanoBRET Fold Response (0.1μM tracer): 0.89; NanoBRET Fold Response (1μM tracer): 1.03
